The source of these data is PMC8659337, “Motor domain-mediated autoinhibition dictates axonal transport by the kinesin UNC-104/KIF1A” (PLoS Genetics, 2021).

Assay [1] deals with T1, UNC-104 (MD-NC-CC1, residue 1-446) (Caenorhabditis elegans, UniProt P23678).
T1 construct: MD-NC-CC1 fragment, residues 1-446, bacterial expression
T1 sequence (P23678 1-446): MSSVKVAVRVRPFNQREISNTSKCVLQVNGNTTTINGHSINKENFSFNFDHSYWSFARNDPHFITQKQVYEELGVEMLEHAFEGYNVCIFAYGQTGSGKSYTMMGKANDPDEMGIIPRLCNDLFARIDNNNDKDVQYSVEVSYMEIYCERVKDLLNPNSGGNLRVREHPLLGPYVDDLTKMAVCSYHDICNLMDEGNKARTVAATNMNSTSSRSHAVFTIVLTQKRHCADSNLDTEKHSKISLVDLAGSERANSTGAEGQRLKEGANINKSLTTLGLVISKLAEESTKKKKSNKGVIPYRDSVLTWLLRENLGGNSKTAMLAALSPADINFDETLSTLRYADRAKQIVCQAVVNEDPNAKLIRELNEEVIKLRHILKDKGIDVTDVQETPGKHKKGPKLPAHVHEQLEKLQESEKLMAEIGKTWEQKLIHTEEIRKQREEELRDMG
The experiment in a line: microtubule-stimulated ATPase assay. Type of assay: biochemical. To be noted: microtubules present.

Assay [2] has as its target T2, KIF13B MD-NC-CC1 (Rattus norvegicus, UniProt A0A0G2K8Z9).
T2 construct: MD-NC-CC1 fragment (motor domain, neck coil, CC1)
T2 sequence (A0A0G2K8Z9 48-490 limits assumed): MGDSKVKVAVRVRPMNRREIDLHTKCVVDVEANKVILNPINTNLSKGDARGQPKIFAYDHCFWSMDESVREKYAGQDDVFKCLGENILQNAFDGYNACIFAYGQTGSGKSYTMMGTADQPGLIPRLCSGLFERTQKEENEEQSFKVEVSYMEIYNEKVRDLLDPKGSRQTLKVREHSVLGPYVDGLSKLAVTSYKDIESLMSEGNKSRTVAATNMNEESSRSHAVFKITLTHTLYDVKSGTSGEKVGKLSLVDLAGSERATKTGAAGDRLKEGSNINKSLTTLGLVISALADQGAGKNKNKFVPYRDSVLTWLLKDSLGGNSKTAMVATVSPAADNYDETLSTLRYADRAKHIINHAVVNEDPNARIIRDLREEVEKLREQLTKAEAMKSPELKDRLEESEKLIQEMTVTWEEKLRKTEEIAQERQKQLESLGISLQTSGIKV
In words: microtubule-stimulated ATPase, malachite green phosphate endpoint assay. Type of assay: biochemical. To be noted: microtubules present; autoinhibited wild type.

In assay [3] the target is T3, KIF13B MD-NC-CC1 (Rattus norvegicus, UniProt A0A0G2K8Z9, , form not given).
T3 construct: MD-NC-CC1 fragment (motor domain, neck coil, CC1)
T3 sequence (A0A0G2K8Z9 48-490 T239Y limits assumed): T2 sequence (A0A0G2K8Z9 48-490 limits assumed) with T192Y
The assay is described as above. It is filed as biochemical. To be noted: microtubules present.

Assay [4] addresses T4, UNC-104 (MD-NC-CC1, residue 1-446) (Caenorhabditis elegans, UniProt P23678, C184Y).
T4 construct: MD-NC-CC1 fragment, residues 1-446, bacterial expression
T4 sequence (P23678 1-446 C184Y): T1 sequence (P23678 1-446) with C184Y
In words: microtubule-stimulated ATPase assay. It is filed as biochemical. To be noted: microtubules present.

Assay [5] has as its target KIF13B T192Y-MD-NC-CC1 mutant (rat). The experiment in a line: crystal structure; crystals of the KIF13B T192Y-MD-NC-CC1 mutant (~25 mg/ml), 0.1 M Bis-Tris propane pH 8.2, 30% PEG 20000, sitting drop, 16°C; one molecule in the asymmetric unit, dimer formed by a crystallographic two-fold symmetry axis.

As a reminder, the stoichiometry N is a count of units in the complex or per binding partner.

Residue numbers refer to the chain shown, from its start.

Regarding `Nc1ncnc2c1ncn2[C@@H]1O[C@H](COP(=O)(O)OP(=O)(O)OP(=O)(O)O)[C@@H](O)[C@H]1O` [ATP], the “microtubule-stimulated ATPase assay” value was “the MD-NC-CC1 fragment of UNC-104 shows the moderate MT-stimulated ATPase activity” in assay [1] and “the C184Y mutant undergo a significant enhancement in its ATPase activity” in assay [4]. Moreover, the “microtubule-stimulated ATPase, malachite green phosphate endpoint assay” value is “Microtubule-stimulated ATPase activity of the KIF13B MD-NC-CC1 fragment” at KIF13B MD-NC-CC1 [2]; “both the T192Y and L397F mutations significantly restored the ATPase activity of the MD-NC-CC1 fragment” at KIF13B MD-NC-CC1 [3].
In turn, “KIF13B T192Y-MD-NC-CC1 mutant (domain or fragment)” returned a stoichiometry N in assay [5] of 2.
